According to patent US20130324606A1, “Ester Derivatives of Bimatoprost Compositions and Methods” (ALLERGAN, INC., priority 2011, published 2013):

Key:
C57Black/6J mice = assay: Piliation (hair regrowth) studies in mice; assay type: in vivo; conditions: for pharmacological efficacy relative to bimatoprost: mouse hair regrowth, vehicle Formulation A
Method: C57Black/6J, 7-week old female mice (n=10) were employed in piliation studies. Dorsal hair was shaved (area ˜2 cm×4 cm). Dosing of active agent was once per day (QD) by topical administration for 14 days. Observations were conducted for 42-days to determine onset of new hair growth and day of hair growth completion. Compounds were formulated as either a) 50% propylene glycol, 30% ethanol, 20% water, or b) the formulation of Formulation A described above. The experiments reported for FIGS. 4A-4B, 5A-5B, 6A-6B, 8A-8B, and 9A-9B were conducted using a vehicle with formulation of 50% propylene glycol, 30% ethanol, 20% water. The experiments reported for FIGS. 7A-7B were conducted using a vehicle of Formulation A described above.
For each of FIGS. 4A, 5A, 6A, 7A, 8A and 9A, the histograms depict the day of onset of hair growth. For each of FIGS. 4B, 5B, 6B, 7B, 8B and 9B, the histograms depict the day achieving full hair growth.

[1] = Pharmacokinetic assessment of mouse hair regrowth model; assay type: in vivo; conditions: mice, 0.03% dermal daily ~60 uL, all measured time points, LC/MS-MS
Method: Female C57BL/6J mice (n=2) were assayed per time point per treatment group. Treatment groups: (1) vehicle; (2) 0.03% Cmpd IVa; (3) 0.03% Cmpd IIIb; (4) 0.03% Cmpd IVb; (5) 0.03% bimatoprost. Treatment dosing: dermal daily application of ˜60 uL test compound solution. Blood and skin pharmacokinetic time points were obtained at day 1 (1, 4, 8 and 24-hrs post-dose); day 2 (24-hrs post-dose); day 14 (24-hrs post-dose); and day 42 (28 days post day 14 dose). Bioanalysis employed LC/MS-MS.

mouse skin = assay: Pathology assessment of mouse hair regrowth model; assay type: in vivo, mice; conditions: histology, 0.03% active, vehicle control still in growth phase
Text: Histological samples from test subjects employed in the studies described in Example 12 were obtained for pathology assessment.

[2] = In vitro human skin penetration (Franz diffusion chamber); assay type: in vitro ADME; conditions: for skin penetration (cumulative amount in receptor solution) relative to bimatoprost / penetration flux relative to bimatoprost / Percentage Dose Applied, Receptor Chamber Solution, Prodrug / Percentage Dose Applied, Upper ⅓ Dermis, Prodrug: 0.03% in Formulation A; for skin penetration (cumulative amount in receptor solution) relative to bimatoprost: FIG. 13A; for penetration flux relative to bimatoprost: FIG. 13B; for Percentage Dose Applied, Receptor Chamber Solution, Prodrug: Franz chamber; for Percentage Dose Applied, Receptor Chamber Solution, Prodrug / Percentage Dose Applied, Upper ⅓ Dermis, Prodrug: dosed compound; for Percentage Dose Applied, Upper ⅓ Dermis, Prodrug: dermis at 48 hrs; for conversion to bimatoprost in the SC/Epi/Dermis layers: FIG. 15A; for amount of active agent in the upper third of the dermis relative to bimatoprost: FIG. 15B
Text: Test material: Dermatomed ex vivo human cadaver posterior trunk skin on 1.0 cm^2 Franz diffusion chamber as known in the art. Test size: 3 skin donors (obtained from New York Firefighters Skin Bank), 3 replicates per donor per formulation. Test formulations: 0.03% active agent (Cmpd IVa, Cmpd IIIb, Cmpd IVb) in Formulation A; control formulation: bimatoprost at 0.03% in Formulation A. Dosing regimen: receptor fluid at 2, 4, 24, and 48 hrs; SC/epidermis and dermis at 48 hrs. Sample analysis: LC/MS-MS to detect bimatoprost and Cmpds IVa, IIIb and IVb.

[3] = as above; assay type: in vitro ADME; conditions: FIGS. 14A-14C, 6, 24, 48 hr
[4] = Partitioning in artificial sebum; assay type: physicochemical
Method: Compounds bimatoprost, Cmpd IVa, and Cmpd IIIb were added to aqueous solution (1 mL, 2-20 ug/mL), with and without 1-20 mg artificial sebum. Samples were shaken for 16 hr at 37° C. Samples were then centrifuged (8000 RPM) for 15 min at room temperature, prior to collection of the aqueous solution. Samples were analyzed for concentration of compound without artificial sebum (i.e., Co) and with artificial sebum (i.e., Ci) by mass spectroscopy. Artificial sebum and water partition coefficient (Ksebum) was expressed as the concentration of drug in 1 g of artificial sebum divided by the concentration of drug in 1 g of aqueous solution, and was calculated as Ksebum=(Co−Ci)Waqueous/(Ci×Wsebum) (Eqn. 1), where W represents weight.
Artificial sebum was prepared as follows: 15% (w/w) squalene, 15% spermaceti, 10% coconut oil, 1.5% oleic acid, 5% palmitic acid, 2.4% cholesterol oleate, 10% paraffin wax, 10% olive oil, 25% cottonseed oil, 5% palmitoleic acid, 1.2% cholesterol. The melting point of the semi-liquid was 37° C.

[5] = microAmes mutagenesis screen; assay type: cell-based; conditions: with or without metabolic activation
Text: Cmpds IVa, IIIb, and IVb were subjected to the microAmes screen, as known in the art.

[6] = Formulation and stability studies; assay type: physicochemical; conditions: variations of Formulation A, 0.03% active, pH 4, 5, 6 and 7; 25, 40 and 60° C.; zero time and 80-days
Method: Stability over time of compounds disclosed herein was determined in formulation as a function of temperature and pH. Variations of Formulation A described herein were employed wherein the target concentration of active agent was 0.03%, and the pH was varied at pH 4, 5, 6 and 7. Temperatures of 25° C., 40° C. and 60° C. were maintained during the experiment. Samples were evaluated at zero time and 80-days.
Cmpds IVa, IIIb, and IVb for evaluated for stability.
FIGS. 1A-1B, 2A-2B, and 3A-3B depict histograms of relative concentrations of test compounds (arbitrary scale) at zero time or 80-days. FIG. 1A depicts a histogram of the stability profile of Cmpd IVa as a function of pH and temperature. FIG. 1B depicts a histogram of the formation of bimatoprost as a function of pH and temperature after 80-days for Cmpd IVa. FIG. 2A depicts a histogram of the stability profile of Cmpd IVb as a function of pH and temperature. FIG. 2B depicts a histogram of the formation of bimatoprost as a function of pH and temperature after 80-days for Cmpd IVb. FIG. 3A depicts a histogram of the stability profile of Cmpd IIIb as a function of pH and temperature. FIG. 3B depicts a histogram of the formation of bimatoprost as a function of pH and temperature after 80-days for Cmpd IIIb.

[7] = Dermal tolerability in rats; assay type: in vivo; conditions: female rats; for change in food consumption and body weight gain (in words): 3 mg/kg/day daily for 8 days; for Body Weight Gain (g) Mean ± SD / Food Consumption (g) Mean ± SD: dermal 3 mg/kg/day daily for 8 days, Formulation A
Method: Female rats were administered either vehicle or one of Cmpds IVa, IIIb, or IVb daily for 8 days. The administered dose was 3 mg/kg/day, at a concentration of 3 mg/mL. Observed data were body weight, viability, food consumption, and dermal observation (skin reaction grading), as known in the art. The vehicle was Formulation A. See Table 1 above.

[8] = test system: reconstructed human epidermis (RHE); assay: In vitro dermal irritation screening in reconstructed human epidermis; assay type: cell-based; conditions: concentration 0.03%, Formulation A vehicle
Method: In vitro irritation screening assays were conducted for compounds described herein. Test system was the reconstructed human epidermis (RHE), as known in the art. Single dosing was employed, and endpoints were evaluated as a function of time up to 24-hrs. Endpoints were tissue viability and IL-1α release.
Test compounds included Cmpds IVa (0.03%), IIIb (0.03%), IVb (0.03%), bimatoprost (0.03%), minoxidil (5%, foam), and minoxidil (5%, solution). Administration of Cmpds IVa, IIIb, IVb and bimatoprost employed the vehicle of Formulation A. See Table 1 above. Administration of minoxidil employed minoxidil vehicle with formulation 20% H2O, 50% propylene glycol, and 30% ethanol.

[9] = test system: human hair dermal papilla cells, HHDPC; assay: Cellular dielectric spectroscopy (CDS) in dermal papilla cells; assay type: cell-based; conditions: for EC50: cell impedance, tested range 10^−4 to 10^−13 mol/L
Method: Cellular dielectric spectroscopy (CDS) was conducted in an assay of dermal papilla cells (i.e., human hair dermal papilla cells, HHDPC) with bimatoprost and Cmpds IVc and IVb. As known in the art, CDS is a real-time, non-invasive, label-free, high-throughput, cell-based assay which measures electrical cell impedance. Without wishing to be bound by any theory, it is believed that GPCR activation induces changes in cell morphology, cell-cell interaction, and cell adherence which manifest as a change in cell impedance.

level in the systemic circulation [1]	penetration flux relative to bimatoprost [2]	Percentage Dose Applied, Receptor Chamber Solution, Prodrug [2] [Percentage Dose Applied]	Percentage Dose Applied, Upper ⅓ Dermis, Prodrug [2] [Percentage Dose Applied]	conversion to bimatoprost in the SC/Epi/Dermis layers [2]	amount of active agent in the upper third of the dermis relative to bimatoprost [2]	conversion to bimatoprost in the receptor chamber solution [3]	stability in formulation [6]	EC50 [9]	SMILES	pharmacological efficacy relative to bimatoprost (C57Black/6J mice)	hair cycle phase at day-42 (mouse skin)	skin penetration (cumulative amount in receptor solution) relative to bimatoprost [2]	mutagenicity in microAmes screen [5]	change in food consumption and body weight gain (in words) [7]	Body Weight Gain (g) Mean ± SD [7] [g]	Food Consumption (g) Mean ± SD [7] [g]	potential for irritation of the human skin [8]	change in cell impedance [9]	further results
most undetectable	greater than that for bimatoprost	0.8	2.1	converted to bimatoprost	less than observed for bimatoprost	observed to convert to bimatoprost	stable in formulation	–	CCNC(=O)CCC/C=C\C[C@@H]1[C@@H](/C=C/[C@@H](O)CCc2ccccc2)[C@H](OC(=O)CC)C[C@@H]1O [Cmpd IIIb, 11-propionyl bimatoprost]	approximately equivalent efficacy	returned to the resting phase	significantly greater than for bimatoprost	not mutagenic	no significant change in food consumption or body weight gain	10.0 ± 6.1	22.8 ± 1.36	no indication of potential for irritation	–	phase in which the majority of compound remains ([4]; artificial sebum / aqueous solution): remain in the aqueous phase; Ave. Ksebum (artificial sebum and water partition coefficient) ([4]; n = 4, 16 hr at 37° C.): 6.1; dermal observation: signs of irritation ([7]; 3 mg/kg/day, days 2-4): minimal and transient signs of irritation
most undetectable	greater than that for bimatoprost	2.1	1.9	converted to bimatoprost	less than observed for bimatoprost	observed to convert to bimatoprost	stable in formulation	could not be determined	CCNC(=O)CCC/C=C\C[C@@H]1[C@@H](/C=C/[C@H](CCc2ccccc2)OC(=O)CC)[C@H](O)C[C@@H]1O [Cmpd IVb, 15-propionyl-bimatoprost]	approximately equivalent efficacy	returned to the resting phase	significantly greater than for bimatoprost	not mutagenic	decreases in both food consumption and body weight gain	0.3 ± 6.7	19.19 ± 1.32	no indication of potential for irritation	not observed to provide a change in cell impedance	days for hair growth to commence (day of onset of hair growth) (C57Black/6J mice; 0.03%, topical QD 14 days, vehicle 50% propylene glycol, 30% ethanol, 20% water, FIG. 6A): 16 days; days for full hair growth to be achieved (C57Black/6J mice; 0.03%, topical QD 14 days, vehicle 50% propylene glycol, 30% ethanol, 20% water, FIG. 6B): 32 days; activity in the time required to regain full hair growth (ranking) (C57Black/6J mice; among compounds tested at 0.03%): best activity
–	–	–	–	–	–	–	–	could not be determined	CCCC(=O)O[C@H](/C=C/[C@@H]1[C@@H](C/C=C\CCCC(=O)NCC)[C@@H](O)C[C@H]1O)CCc1ccccc1 [Cmpd IVc, 15-butyryl bimatoprost]	–	–	–	–	–	–	–	–	not observed to provide a change in cell impedance	–
